From ChEMBL document CHEMBL1201862, “PubChem BioAssay data set” (2004)
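A five-concentration, 48-hour dose response in 96-well plates underlies each endpoint, interpolated linearly between surrounding concentrations. Abbreviation: GI50, concentration required for 50% inhibition of growth.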 Activity calls are given as the source filed them. Rule as the data show it: active = GI50 up to about 1.1 µM and inactive = higher.

Experiments:
Experiment in all cases: NCI tumour cell line growth inhibition, 48 h
[1] = system: DMS-273
[2] = system: UO-31
[3] = system: LOX IMVI
[4] = system: HCT-15
[5] = system: OVCAR-5
[6] = system: HCT-116
[7] = system: M14
[8] = system: OVCAR-8
[9] = system: KM12
[10] = system: SF-268
[11] = system: K562
[12] = system: NCI-H460
[13] = system: EKVX
[14] = system: Hs-578T
[15] = system: DU-145
[16] = system: BT-549
[17] = system: PC-3
[18] = system: SNB-75
[19] = system: COLO 205
[20] = system: MDA-N

Compound	GI50 [1]	GI50 [2]	GI50 [3]	GI50 [4] [µM]	GI50 [5]	GI50 [6]	GI50 [7]	GI50 [8]	GI50 [9]	GI50 [10]	GI50 [11]	GI50 [12]	GI50 [13]	GI50 [14]	GI50 [15]	GI50 [16]	GI50 [17]	GI50 [18]	GI50 [19]	GI50 [20]
CC(C)(Oc1ccc(C(=O)c2ccc(Cl)cc2)cc1Cl)C(=O)Nc1c(Cl)cccc1Cl	> 100 µM (inactive)	23 µM (inactive)	> 100 µM (inactive)	> 100	> 100 µM (inactive)	> 100 µM (inactive)	> 100 µM (inactive)	> 100 µM (inactive)	> 100 µM (inactive)	> 100 µM (inactive)	5.64 µM (inactive)	5.77 µM (inactive)	> 100 µM (inactive)	–	–	–	–	–	–	–
O=C1C=C(c2ccccc2)OC1C1Sc2ccccc2NC1=O (stereo unspecified)	–	7.26 µM (inactive)	13.6 µM (inactive)	12.7	13.8 µM (inactive)	4.5 µM (inactive)	8.67 µM (inactive)	9.31 µM (inactive)	7.76 µM (inactive)	7.71 µM (inactive)	3.3 µM (inactive)	2.74 µM (inactive)	14 µM (inactive)	6.11 µM (inactive)	12.7 µM (inactive)	14.6 µM (inactive)	10.9 µM (inactive)	5.11 µM (inactive)	7.73 µM (inactive)	4.48 µM (inactive)
CCOc1cc2c(cc1O)CC[C@@H]1[C@@H]2CC[C@]2(C)[C@@H](O)CC[C@@H]12	–	0.256 µM (active)	0.0179 µM (active)	< 0.0138	10.8 µM (inactive)	0.0234 µM (active)	0.0261 µM (active)	0.109 µM (active)	1.22 µM (inactive)	0.0612 µM (active)	< 0.0171 µM (active)	0.0228 µM (active)	0.497 µM (active)	0.0306 µM (active)	0.0547 µM (active)	0.0125 µM (active)	1.62 µM (inactive)	0.0168 µM (active)	12.7 µM (inactive)	0.0107 µM (active)
Cc1ccc(/N=C2N=C(Cl)/C(=C\c3ccco3)N\2)cc1	–	> 100 µM (inactive)	> 100 µM (inactive)	> 100	> 100 µM (inactive)	> 100 µM (inactive)	> 100 µM (inactive)	> 100 µM (inactive)	> 100 µM (inactive)	> 100 µM (inactive)	> 100 µM (inactive)	> 100 µM (inactive)	> 100 µM (inactive)	> 100 µM (inactive)	> 100 µM (inactive)	> 100 µM (inactive)	> 100 µM (inactive)	> 100 µM (inactive)	> 100 µM (inactive)	> 100 µM (inactive)
CC1(C)N[PH]2(Nc3ccccc3O2)OC1=O	–	96.4 µM (inactive)	18.3 µM (inactive)	64.9	> 100 µM (inactive)	> 100 µM (inactive)	38.5 µM (inactive)	82.8 µM (inactive)	> 100 µM (inactive)	> 100 µM (inactive)	37.9 µM (inactive)	45.4 µM (inactive)	84.3 µM (inactive)	> 100 µM (inactive)	> 100 µM (inactive)	18.6 µM (inactive)	41.1 µM (inactive)	> 100 µM (inactive)	17.8 µM (inactive)	19.2 µM (inactive)
CCOC(=O)n1[nH]c(=O)n(-c2ccccc2)c1=O	–	> 100 µM (inactive)	> 100 µM (inactive)	> 100	> 100 µM (inactive)	> 100 µM (inactive)	> 100 µM (inactive)	> 100 µM (inactive)	> 100 µM (inactive)	> 100 µM (inactive)	> 100 µM (inactive)	> 100 µM (inactive)	> 100 µM (inactive)	> 100 µM (inactive)	> 100 µM (inactive)	> 100 µM (inactive)	> 100 µM (inactive)	> 100 µM (inactive)	> 100 µM (inactive)	> 100 µM (inactive)
CC(C)=CC(=O)C[C@H]1C(=O)O[C@@H]2C[C@H]3C(C)=CC(=O)[C@@H](O)[C@]3(C)[C@H]3[C@@]4(O)OC[C@]32[C@@H]1[C@@H](C)[C@H]4O	–	0.0605 µM (active)	< 0.01 µM (active)	0.0382	0.0711 µM (active)	< 0.01 µM (active)	0.0196 µM (active)	< 0.01 µM (active)	< 0.0169 µM (active)	0.0275 µM (active)	< 0.01 µM (active)	< 0.01 µM (active)	0.175 µM (active)	0.029 µM (active)	0.0177 µM (active)	0.0213 µM (active)	0.0159 µM (active)	0.0148 µM (active)	0.125 µM (active)	< 0.0189 µM (active)
O=C(O)c1nnsc1COCc1ccccc1	–	> 100 µM (inactive)	> 100 µM (inactive)	> 100	> 100 µM (inactive)	> 100 µM (inactive)	> 100 µM (inactive)	> 100 µM (inactive)	> 100 µM (inactive)	> 100 µM (inactive)	> 100 µM (inactive)	> 100 µM (inactive)	> 100 µM (inactive)	> 100 µM (inactive)	> 100 µM (inactive)	> 100 µM (inactive)	> 100 µM (inactive)	> 100 µM (inactive)	> 100 µM (inactive)	> 100 µM (inactive)
CC1C(=O)O[C@H]2C1CC[C@@]1(C)[C@H](O)CC[C@@]13C[C@]2(O)OO3 (stereo partly specified)	> 100 µM (inactive)	> 100 µM (inactive)	> 100 µM (inactive)	> 100	> 100 µM (inactive)	> 100 µM (inactive)	> 100 µM (inactive)	> 100 µM (inactive)	–	> 100 µM (inactive)	> 100 µM (inactive)	> 100 µM (inactive)	–	–	–	–	–	–	> 100 µM (inactive)	–
COc1cccc(-c2nc(N)c(C#N)c3c2CCS(=O)(=O)c2ccc(C)cc2-3)c1	–	40.3 µM (inactive)	31.4 µM (inactive)	7.87	> 100 µM (inactive)	20 µM (inactive)	25.7 µM (inactive)	26.1 µM (inactive)	7.85 µM (inactive)	31.6 µM (inactive)	3.21 µM (inactive)	10.8 µM (inactive)	50.6 µM (inactive)	13.3 µM (inactive)	37.6 µM (inactive)	52 µM (inactive)	15.8 µM (inactive)	10.4 µM (inactive)	8.05 µM (inactive)	3.08 µM (inactive)
NC1CC(=O)c2csc(Br)c21 (stereo unspecified)	–	16 µM (inactive)	15.6 µM (inactive)	7.71	14.4 µM (inactive)	11.2 µM (inactive)	19.5 µM (inactive)	16.6 µM (inactive)	12.2 µM (inactive)	20 µM (inactive)	5.97 µM (inactive)	20.3 µM (inactive)	15.1 µM (inactive)	17.4 µM (inactive)	20.7 µM (inactive)	11.8 µM (inactive)	14 µM (inactive)	23.1 µM (inactive)	16.5 µM (inactive)	13.6 µM (inactive)
O=C(O)/C=C(/CC(=O)O)C(=O)O	–	17.2 µM (inactive)	22.7 µM (inactive)	22.7	38.4 µM (inactive)	18.2 µM (inactive)	18.7 µM (inactive)	21.6 µM (inactive)	23.8 µM (inactive)	19 µM (inactive)	19.2 µM (inactive)	35.2 µM (inactive)	19.3 µM (inactive)	19.9 µM (inactive)	19.9 µM (inactive)	21.1 µM (inactive)	19.6 µM (inactive)	14.1 µM (inactive)	17.6 µM (inactive)	22.1 µM (inactive)
OC1(C(F)(F)F)OCCN=C1C(F)(F)F (stereo unspecified)	–	> 100 µM (inactive)	> 100 µM (inactive)	64.4	> 100 µM (inactive)	51.5 µM (inactive)	> 100 µM (inactive)	53.5 µM (inactive)	> 100 µM (inactive)	53.8 µM (inactive)	> 100 µM (inactive)	> 100 µM (inactive)	> 100 µM (inactive)	17.2 µM (inactive)	41.1 µM (inactive)	56.2 µM (inactive)	> 100 µM (inactive)	> 100 µM (inactive)	> 100 µM (inactive)	> 100 µM (inactive)
CC(NNC(=O)c1cc[n+]([BH2-]C#N)cc1)C(F)(F)F (stereo unspecified)	–	> 100 µM (inactive)	> 100 µM (inactive)	> 100	> 100 µM (inactive)	> 100 µM (inactive)	> 100 µM (inactive)	> 100 µM (inactive)	> 100 µM (inactive)	> 100 µM (inactive)	> 100 µM (inactive)	> 100 µM (inactive)	> 100 µM (inactive)	> 100 µM (inactive)	> 100 µM (inactive)	> 100 µM (inactive)	> 100 µM (inactive)	> 100 µM (inactive)	> 100 µM (inactive)	> 100 µM (inactive)
O=CN(O)CC(=O)O	–	> 100 µM (inactive)	> 100 µM (inactive)	> 100	> 100 µM (inactive)	> 100 µM (inactive)	> 100 µM (inactive)	> 100 µM (inactive)	> 100 µM (inactive)	> 100 µM (inactive)	> 100 µM (inactive)	> 100 µM (inactive)	> 100 µM (inactive)	> 100 µM (inactive)	> 100 µM (inactive)	> 100 µM (inactive)	> 100 µM (inactive)	> 100 µM (inactive)	> 100 µM (inactive)	> 100 µM (inactive)
CCCC(=O)OCC1OC(n2cc(F)c(=O)[nH]c2=O)C(F)C1O (stereo unspecified)	–	74.8 µM (inactive)	11.4 µM (inactive)	> 84.7	> 100 µM (inactive)	> 22.4 µM (inactive)	18.8 µM (inactive)	> 38.5 µM (inactive)	> 100 µM (inactive)	> 26.4 µM (inactive)	6.35 µM (inactive)	2.86 µM (inactive)	> 71.4 µM (inactive)	99.3 µM (inactive)	5.5 µM (inactive)	13.9 µM (inactive)	> 100 µM (inactive)	> 55 µM (inactive)	24.5 µM (inactive)	14.9 µM (inactive)
